Patent publication US12391698B2, “Substituted piperidines and piperazines and methods for the treatment of CNS disorders” (SUVEN LIFE SCIENCES LIMITED, priority 2022, dated 2025)
Counter-ions that a name gives are not always drawn.

Key:
[1] = biological target: T1, cloned human 5-HT1A receptor (Homo sapiens, UniProt P08908); experiment: Determination of Ki at 5-HT1A receptor (radioligand binding, [3H]-8-Hydroxy DPAT); details: HEK293-EBNA recombinant cells; [3H]-8-Hydroxy DPAT 0.8 nM; read-out: Ki h5-HT1A
T1 construct: expressed in transfected cells; host or cells: HEK293-EBNA
T1 sequence (P08908 1-422): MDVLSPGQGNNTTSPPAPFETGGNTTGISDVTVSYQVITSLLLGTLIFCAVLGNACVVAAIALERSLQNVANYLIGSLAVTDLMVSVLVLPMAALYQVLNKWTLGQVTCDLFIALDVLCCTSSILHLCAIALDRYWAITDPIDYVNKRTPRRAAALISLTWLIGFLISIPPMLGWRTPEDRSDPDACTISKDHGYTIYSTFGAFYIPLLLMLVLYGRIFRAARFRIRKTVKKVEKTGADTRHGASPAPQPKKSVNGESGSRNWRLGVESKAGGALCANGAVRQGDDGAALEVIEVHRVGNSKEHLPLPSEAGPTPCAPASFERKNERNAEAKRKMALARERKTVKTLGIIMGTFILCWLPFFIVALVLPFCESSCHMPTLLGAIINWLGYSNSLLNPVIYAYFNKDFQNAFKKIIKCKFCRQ
Method: (§1) Compounds were tested according to the following procedure.
(§2) • Receptor source: Recombinant mammalian cells (HEK293-EBNA) • Radioligand: [^3H]-8-Hydroxy DPAT (200 Ci/mmol) • Final ligand concentration: 0.8 nM • Non-specific determinant: 0.1 mM U92016A • Reference compound: U92016A • Positive control: U92016A Incubation Conditions:
(§3) Reactions were carried out in buffer with pH 7.4 containing 50 mM Tris-HCl, 0.5 mM EDTA, 10 mM MgSO4, 0.1% Ascorbic acid for 2 h at r.t. The reaction was terminated by rapid vacuum filtration onto the glass fiber filters. Radioactivity trapped onto the filters was determined and compared to the control values in order to ascertain any interactions of the test compound(s) with cloned human 5-HT1A receptor binding site.

[2] = biological target: T2, cloned human 5-HT2A receptor (Homo sapiens, UniProt P28223); experiment: Determination of Ki at 5-HT2A receptor (radioligand binding, [3H]-Ketanserine); details: CHO-K1 recombinant cells; [3H]-Ketanserine 1.25 nM; read-out: Ki h5-HT2A
T2 construct: expressed in transfected cells; host or cells: CHO-K1
T2 sequence (P28223 whole entry): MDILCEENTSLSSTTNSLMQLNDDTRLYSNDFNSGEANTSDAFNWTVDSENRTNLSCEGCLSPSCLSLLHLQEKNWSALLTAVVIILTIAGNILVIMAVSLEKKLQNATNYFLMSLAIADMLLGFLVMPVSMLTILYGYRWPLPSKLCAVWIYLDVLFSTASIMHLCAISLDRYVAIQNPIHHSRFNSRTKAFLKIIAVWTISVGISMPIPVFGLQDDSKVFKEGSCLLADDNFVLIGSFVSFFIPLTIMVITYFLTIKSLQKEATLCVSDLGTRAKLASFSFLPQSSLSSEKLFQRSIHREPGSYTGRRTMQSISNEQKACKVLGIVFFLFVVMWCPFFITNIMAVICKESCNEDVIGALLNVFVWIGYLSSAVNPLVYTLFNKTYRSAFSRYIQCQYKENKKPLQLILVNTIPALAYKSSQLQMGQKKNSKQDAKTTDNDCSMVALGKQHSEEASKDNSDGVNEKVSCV
Method: as §1
as §2, with “(CHO-K1)” for “(HEK293-EBNA)”, “[^3H]-Ketanserine (41.9” for “[^3H]-8-Hydroxy DPAT (200”, “1.25” for “0.8”, “1-Napthyl piperazine (1-NP)” for “U92016A”
as §3, with “4” for “0.5”, “CaCl2),” for “EDTA, 10 mM MgSO4,”, “1” for “2”, “5-HT2A” for “5-HT1A”

[3] = biological target: cloned human SERT receptor (Homo sapiens, UniProt P31645); experiment: Determination of Ki at SERT receptor (SPA binding, [3H]-Citalopram); details: HEK293 recombinant cells; [3H]-Citalopram 2 nM; cells printed in μM; read-out: Ki hSERT
cloned human SERT receptor, sequence (P31645 whole entry): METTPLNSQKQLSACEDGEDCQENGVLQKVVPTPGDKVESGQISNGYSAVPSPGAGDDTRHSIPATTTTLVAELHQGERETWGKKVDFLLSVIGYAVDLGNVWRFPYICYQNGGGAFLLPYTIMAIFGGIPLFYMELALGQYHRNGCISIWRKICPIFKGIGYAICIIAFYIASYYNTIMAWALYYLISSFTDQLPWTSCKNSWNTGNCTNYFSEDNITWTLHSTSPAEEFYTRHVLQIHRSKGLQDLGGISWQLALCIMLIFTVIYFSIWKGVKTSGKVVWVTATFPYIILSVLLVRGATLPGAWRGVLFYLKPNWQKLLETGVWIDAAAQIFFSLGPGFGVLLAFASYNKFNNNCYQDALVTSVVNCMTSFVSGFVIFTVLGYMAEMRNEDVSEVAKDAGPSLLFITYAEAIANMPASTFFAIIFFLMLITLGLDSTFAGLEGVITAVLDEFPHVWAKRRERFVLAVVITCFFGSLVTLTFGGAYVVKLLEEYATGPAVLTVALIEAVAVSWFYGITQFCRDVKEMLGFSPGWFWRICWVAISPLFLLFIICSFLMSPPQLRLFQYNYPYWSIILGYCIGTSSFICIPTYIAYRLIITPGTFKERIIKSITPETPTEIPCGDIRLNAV
Method: as §1
• Receptor source: Recombinant mammalian cells (HEK293) • Radioligand: [^3H]-Citalopram (80.8 Ci/mmol) • Final ligand concentration: 2 nM • Non-specific determinant: 0.1 mM Venlafaxine • Reference compound: Venlafaxine • Positive control: Venlafaxine Incubation Conditions:
Reactions were carried out in buffer with pH 7.4 containing 50 mM Tris-HCl, 150 mM NaCl, 5 mM KCl and scintillation proximity assay (SPA) beads (0.1 mg/well) for 3 h at r.t. Radioactivity proximal to SPA beads was determined by scintillation proximity assay and compared to the control values in order to ascertain any interactions of the test compound(s) with cloned human SERT receptor binding site.
Reference: Journal of Pharmacology and Experimental Therapeutics, 1987, 242 (1), 364-371.

[4] = biological target: T3, hD2S (cloned human dopamine D2S receptor) (Homo sapiens, UniProt P14416); experiment: Determination of Ki at D2S receptor (radioligand binding, [3H]-Raclopride); details: CHO-K1 recombinant cells; [3H]-Raclopride 4 nM; read-out: Ki hD2S
T3 construct: expressed in transfected cells; host or cells: CHO-K1
T3 sequence (P14416 1-414 isoform P14416-2): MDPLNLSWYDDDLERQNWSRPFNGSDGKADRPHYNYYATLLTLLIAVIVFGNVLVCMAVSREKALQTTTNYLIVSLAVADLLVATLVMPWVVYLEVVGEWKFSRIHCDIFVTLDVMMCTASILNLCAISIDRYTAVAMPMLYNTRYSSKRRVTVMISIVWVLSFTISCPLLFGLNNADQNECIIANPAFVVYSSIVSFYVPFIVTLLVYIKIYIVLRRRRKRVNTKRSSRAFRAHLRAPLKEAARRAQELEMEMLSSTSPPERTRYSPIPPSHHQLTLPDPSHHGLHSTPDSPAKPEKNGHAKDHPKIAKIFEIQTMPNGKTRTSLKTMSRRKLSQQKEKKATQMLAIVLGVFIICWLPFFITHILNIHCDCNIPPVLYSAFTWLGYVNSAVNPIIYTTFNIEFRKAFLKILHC
Method: as §1
• Receptor source: Recombinant mammalian cells (CHO-K1) • Radioligand: [^3H]-Raclopride (80.8 Ci/mmol) • Final ligand concentration: 4 nM • Non-specific determinant: 0.1 mM Haloperidol • Reference compound: Haloperidol • Positive control: Haloperidol Incubation Conditions:
as §3, with “120” for “0.5”, “NaCl, 5” for “EDTA, 10”, “KCl, 5 mM MgCl2, 1 mM EDTA” for “MgSO4, 0.1% Ascorbic acid”, “dopamine […]” for “5-HT1A”

[5] = Rodent pharmacokinetic study; type: in vivo, Male Wistar rats; details: rat, plasma, mean ± S.D, n = 3
Method: Male Wistar rats (260±50 g) were used as experimental animals. Animals were housed individually in polypropylene cage. Two days prior to study, male Wistar rats were anesthetized with isoflurane for surgical placement of jugular vein catheter. Rats were randomly divided for oral (3 mg/kg) and intravenous (1 mg/kg) dosing (n=3/group) and fasted overnight before oral dosing (p.o.). However, food and water were provided ad libitum to the rats allocated for intravenous dosing.
At pre-determined time points, blood samples were collected through jugular vein and replenished with an equivalent volume of normal saline. Collected blood was transferred into a labeled eppendorf tube containing 10 μL of heparin as an anticoagulant. Typically blood samples were collected at 0.08, 0.25, 0.5, 1, 2, 4, 6, 8, and 24 h post dose. Blood samples were centrifuged at 4000 rpm for 10 min. Plasma was separated and stored frozen at −80° C. until analysis. The concentrations of the test compounds were quantified in plasma by qualified LC-MS/MS method using suitable extraction technique. The test compounds were quantified in the calibration range around 1-1000 ng/mL in plasma. Study samples were analyzed using calibration samples in the batch and quality control samples spread across the batch.
Pharmacokinetic parameters Cmax, AUCt, t1/2. Clearance and Bioavailability (F) were calculated using standard non-compartmental model by using Phoenix WinNonlin 6.0.4 version software package.

[6] = Rodent brain penetration study; type: in vivo; details: rat, brain/plasma, po, fed male Wistar rats, 3 mg/kg p.o., mean ± S.D, n = 3, read-out: Rat Brain Penetration (Cbrain/Cplasma) at 3 mg/kg, p.o. @ 1 h
Method: Male Wistar rats (260±40 g) were used as experimental animals. Three animals were housed in each cage. Animals were given water and food ad libitum throughout the experiment and maintained on a 12 h light/dark cycle.
Brain penetration was determined in discrete manner in rats. One day prior to dosing, male Wistar rats were acclimatized and randomly grouped according to their body weight. At each time point (0.50, 1 and 2 h), n=3 animals were used.
The test compounds were suitably preformulated and administered orally at (free base equivalent) 3 mg/kg. Blood samples were removed via cardiac puncture under isoflurane anesthesia. The animals were sacrificed to collect brain tissue. Plasma was separated and brain samples were homogenized. Plasma and brain homogenates were stored frozen at −20° C. until analysis. The concentrations of the test compounds in plasma and brain were determined using LC-MS/MS method.
The test compounds were quantified in plasma and brain homogenate by qualified LC-MS/MS method using suitable extraction technique in the calibration range of 1-500 ng/mL. Study samples were analyzed using calibration samples in the batch and quality control samples spread across the batch. Extent of brain-plasma ratio (Cbrain/Cplasma) was calculated.

Male Sprague Dawley rats = experiment: Amphetamine-induced hyperlocomotion; type: in vivo, rat; details: 3 mg/kg, p.o., dosed 30 min prior to trial
Method: Male Sprague Dawley rats of 230-280 g body weight were used. Rats were weighed and randomized according to their body weights. Following day, the rats were brought to the laboratory 1 h prior to test. In the morning session, rats were habituated to open field arena for 15 min. Test compound/vehicle and amphetamine/vehicle were administered 30 min prior to the trial. After the post-dose interval, rats were placed in the open field and locomotion was recorded for a period of 15 min. Amphetamine-induced hyperlocomotion models positive symptoms of schizophrenia.

Rats = experiment: Tardive dyskinesia test (vacuous chewing movements and tongue protrusions); type: in vivo, rat; details: 38 mg/kg, i.m. single dose, scored weekly for 4 weeks
Method: Rats weighing 200-230 g were acclimatized to the plexiglass observation cages (30×20×30 cm) equipped with mirrors for 5 min. After acclimatization, basal vacuous chewing movements (VCMs) and tongue protrusions (TPs) of the rats were quantified manually for 5 min. Rats were randomized based on the basal readings. Rats received a single dose of sesame oil (vehicle treatment) or haloperidol decanoate (38 mg/kg, i.m. positive control). Example-2, 10 mg/kg, p.o. ([…]) was administered for 4 weeks. VCMs and TPs were scored on weekly basis for 4 weeks. Tardive dyskinesia is a side effect of antipsychotic medications.

[7] = intravenous (bolus) 1 mg/kg, male Wistar rats
[8] = oral (gavage) 3 mg/kg, fasted male Wistar rats

`O=C1C[C@H]2CCCN2C(=O)N1C[C@H]1CCCC[C@H]1CN1CCN(c2nsc3ccccc23)CC1` [Example 27, 2-[2-(4-Benzo[d]isothiazol-3-yl-piperazin-1-ylmethyl)-cyclohexylmethyl]-tetrahydro-pyrrolo[1,2-c]pyrimidine-1,3-dione oxalate] showed a Ki [1] of 4.7 nM, a Ki [2] of 2 nM and a Ki [3] greater than 10 µM. For the same molecule, the Ki [4] was 0.2 nM, the AUC(0-t) [5, 7] was 360 ± 10 ng·h/mL and the clearance [5, 7] was 45 ± 1.3 mL/min/kg. The half-life [5, 7] was 2.4 ± 0.4 h, the bioavailability ([5]; oral 3 mg/kg vs intravenous 1 mg/kg, male Wistar rats, read-out: F (Bioavailability)) was 16 ± 8% and the AUC(0-t) [5, 8] was 173 ± 92 ng·h/mL. It also gave a Cmax [5, 8] of 186 ± 109 ng/mL, a half-life [5, 8] of 1.8 ± 0.1 h and a Kp at 1 h [6] of 1.21 ± 0.13. The “Inference, amphetamine antagonism (hyperlocomotion)” value (Male Sprague Dawley rats) was “Active”.

In the case of `CCCCCCCCCC(=O)OC1(c2ccc(Cl)cc2)CCN(CCCC(=O)c2ccc(F)cc2)CC1` [Haloperidol decanoate, reference compound], the “Inference, tardive dyskinesia test (VCMs and TPs vs vehicle group)” value (Rats) is reported as “Increased number of VCMs and TPs”.
